We go through 7 compounds from US7642287B2, “Statin pharmaceutical compositions and related methods of treatment” (Transform Pharmaceuticals, Inc., priority 2004, dated 2010).

“And” between values parts separate entries of the source, which are not always exact repeats. Equal values may be shown once. Where a name gives a salt, the structure may show the parent alone. Read-outs that look alike come from different tables or passages of the source.

Data set [1] can be described thus: Aqueous solubility via UV absorption. The note with it: water, via UV detection, 20-25 degrees C.
Procedure: The term “aqueous solubility” refers to the solubility as measured in deionized water at about 25 degrees C., unless otherwise specified.
A calibration curve was constructed by preparing known concentrations of API in absolute ethanol in volumetric flasks. At each concentration, 200 microliters of the solution was transferred into a 96-well clear bottom UV plate. The sample absorbance was measured at 280 nm (unless otherwise noted) in a UV spectrophotometer.
To measure the API concentration in the sample, a small aliquot was taken and diluted (typically 2000-fold) with absolute ethanol in a volumetric flask to a final approximate concentration of less than 100 micrograms/mL. The absorbance at 280 nm (unless otherwise noted) is measured and the solubility is calculated based on the calibration curve.
Data set [2] is described as follows: Dynamic Vapor Sorption (DVS) moisture sorption isotherm. It is filed as physicochemical. From the text:
Dynamic Vapor Sorption (DVS) data were also acquired on both the pravastatin calcium salt and the pravastatin sodium salt. […] This is consistent with an amorphous compound. Hysteresis is observed in the desorption cycle. […] Significant hysteresis is observed in the desorption cycle.

Data set [3] is described as follows: 26 week stability of pravastatin salts suspended in E463808 omega-3 oil (HPLC). The data set is classed as physicochemical. As for the experimental part: Several salts of pravastatin were suspended in E463808 omega-3 oil and placed in either capped glass vials or sealed gelatin capsules. […] were used at 25 degrees C. while glass vials were used at 25, 40, and 60 degrees C. The suspensions of salt in oil were measured periodically for 26 weeks. HPLC was used to measure degradation of the pravastatin salts.

Data set [4] in a line: Pharmacokinetic two-way cross-over study in fasted beagle dogs (plasma pravastatin, LC/MS). It is filed as in vivo. As for the experimental part:
A two-way cross-over experiment was completed with six fasted beagle dogs to compare the pharmacokinetic parameters of pravastatin calcium salt with pravastatin sodium salt. The pravastatin sodium salt was acquired from PRAVACHOL® tablets. The pravastatin calcium salt was acquired via the method described in Example 1. The pravastatin calcium salt dosage form administered to the dogs consisted of 11.0 mg pravastatin calcium salt (equivalent to 10 mg pravastatin acid) and 744 mg Ropufa 75 ethyl esters of omega-3 fatty acids in a soft gelatin capsule shell. […] The mean dose of pravastatin free acid administered as PRAVACHOL® was 0.85 mg/kg and the mean dose of pravastatin free acid administered as pravastatin calcium salt was 0.95 mg/kg. Following administration, plasma samples were collected pre-dose and then at 0.25, 0.5, 1, 1.5, 2, 3, 4, 6, 8, 12, and 24 hours post-dose. Plasma samples were analyzed for pravastatin concentration using an LC/MS method.

Data set [5] in a line: Gravimetric solubility in deionized water at 23 degrees C. The note with it: listed as calcium salt of fluvastatin. The data set is classed as physicochemical. As for the experimental part:
Solubility measurements of the sodium salt and of the calcium salt of fluvastatin were acquired in water at 23 degrees C. Solubility was measured gravimetrically in deionized water.

Data set [6] is classed as physicochemical. As for the experimental part: Several salts of pravastatin were suspended in 87:13 E681010:ethanol mixtures and placed in capped glass vials. Each suspension of pravastatin calcium, pravastatin magnesium, pravastatin sodium, or pravastatin zinc in 87:13 E681010:ethanol was measured periodically for 12 weeks. HPLC was used to measure degradation of the pravastatin salts.

[7] abbreviates: suspension in E463808, capped glass vials, 8 weeks.
The mark [8] stands for this setting: beagle, dog, plasma, po, 0.95 mg/kg, Mean of six fasted beagle dogs, mean dose as free acid 0.95 mg/kg (calcium salt softgel), 0.85 mg/kg (PRAVACHOL).
Where [9] appears, read: individual dogs, oral, fasted, mean dose as free acid 0.95 mg/kg (calcium salt softgel), 0.85 mg/kg (PRAVACHOL), calcium salt.

As a reminder, the aqueous solubility is the concentration that dissolves in the medium under given conditions. `CCC(C)C(=O)OC1CC(O)C=C2C=CC(C)C(CCC(O)CC(O)CC(=O)[O-])C21.CCC(C)C(=O)OC1CC(O)C=C2C=CC(C)C(CCC(O)CC(O)CC(=O)[O-])C21.[Mg+2]` (centres unmarked) [pravastatin magnesium salt (habit A), pravastatin magnesium salt] showed an aqueous solubility in data set [1] of 14.22 mg/mL.
Consider `CC[C@H](C)C(=O)O[C@H]1C[C@H](O)C=C2C=C[C@H](C)[C@H](CC[C@@H](O)C[C@@H](O)CC(=O)O)[C@H]21` [pravastatin sodium salt], for which the aqueous solubility result in data set [1] (listed as sodium salt of pravastatin, sodium salt) is reported as “greater than 300 mg/mL”. The “hygroscopicity compared with the calcium salt” value in data set [2] (DVS) is reported as “greater hygroscopicity”. For the same compound, the “relative humidity above which adsorbed water increased significantly” value in data set [2] (DVS sorp-desorp cycle) is “about 54 percent RH”.
For orientation: AUC(0-inf) means the area under the concentration-time curve extrapolated to infinity. The AUC(0-t) is exposure summed from dosing to a finite time, without extrapolation to infinity. As a reminder, the half-life is the time in which the quantity being followed falls by half. Broadly, the Cmax is the peak of the concentration-time curve. As usually defined, the Tmax is the time at which the peak concentration occurs. Turning to `CC[C@H](C)C(=O)O[C@H]1C[C@H](O)C=C2C=C[C@H](C)[C@H](CC[C@@H](O)C[C@@H](O)CC(=O)O)[C@H]21` [pravastatin calcium salt], the “stability in suspension of omega-3 oil relative to other pravastatin salts (sodium, potassium)” value in data set [3] (summary statement referring to the Exemplification) is “higher stability”. Moreover, in data set [3] (setting [7]), the “degradation at 60 degrees C. vs potassium salt at 40 degrees C.” value is “significantly less degradation” and the “degradation at 60 degrees C. vs sodium salt at 40 degrees C.” value is “similar”. Moreover, in data set [3] (suspension in E463808, capped glass vials, 40 and 60 degrees C.), the “degradation vs sodium or potassium salt at a given temperature” value was “degrade substantially less”. Moreover, in data set [3] (suspension in E463808, vial, 25 degrees C., 26 weeks), the “degradation compared with all salts in gelcap or vial” value is “degrade the least”. Further, the aqueous solubility in data set [1] (listed as calcium salt of pravastatin, calcium salt) was 17 to 20 mg/mL. Also, the bioavailability in data set [4] (beagle, dog, plasma, po, 0.95 mg/kg, Mean of six dogs, relative to PRAVACHOL AUCinf, dose-normalized) was 121%. Further, in data set [4] (setting [8]), the AUC(0-inf) stood at 441 ng·h/mL, the exposure AUC(0-t) came to 432 ng·h/mL and the half-life was 2.35 h. For the same compound, in data set [4] (beagle, dog, plasma, po, 0.95 mg/kg, Mean of six fasted beagle dogs, oral, mean dose as free acid 0.95 mg/kg (calcium salt softgel), 0.85 mg/kg (PRAVACHOL), read-out: Cmax), the Cmax stood at 141 ng/mL. For the same compound, the Tmax in data set [4] (beagle, dog, plasma, po, 0.95 mg/kg, Mean of six fasted beagle dogs, oral, mean dose as free acid 0.95 mg/kg (calcium salt softgel), 0.85 mg/kg (PRAVACHOL), read-out: Tmax) was determined as 0.71 h. Further, the area under the curve AUC(0-t) in data set [4] (beagle, dog, plasma, po, 0.95 mg/kg, individual dogs, fasted, mean dose as free acid 0.95 mg/kg (calcium salt in Ropufa 75 omega-3 ethyl esters softgel), 0.85 mg/kg (PRAVACHOL)) was 488 ng·h/mL. For the same compound, the AUC(0-inf) in data set [4] (beagle, dog, plasma, po, 0.95 mg/kg, individual dogs, fasted, mean dose as free acid 0.95 mg/kg (calcium salt softgel), 0.85 mg/kg (PRAVACHOL)) stood at 494 ng·h/mL. For the same compound, in data set [4] (fasted beagle dogs, oral), the “AUC values compared with the PRAVACHOL tablet” value is given as “slightly higher”, the “Cmax values compared with the PRAVACHOL tablet” value was “slightly higher” and the “Tmax values compared between the formulations” value is on record as “comparable”. Also, the “AUC0–t” value in data set [4] (individual dogs, oral, fasted, mean dose as free acid 0.95 mg/kg (calcium salt in Ropufa 75 omega-3 ethyl esters softgel), 0.85 mg/kg (PRAVACHOL), calcium salt) is 438.55 ng·h/mL and 505.30 ng·h/mL and 380.68 ng·h/mL and 512.94 ng·h/mL and 264.11 ng·h/mL. For the same compound, in data set [4] (setting [9]), the AUCinf is 453.69 ng·h/mL and 515.14 ng·h/mL and 396.20 ng·h/mL and 518.11 ng·h/mL and 268.01 ng·h/mL; the maximum concentration (Cmax) is 182 ng/mL and 131 ng/mL and 166 ng/mL and 99.0 ng/mL and 87.2 ng/mL; the Tmax is 1 h and 0.5 h and 0.25 h; the t1/2 was 1.67 h and 2.5 h and 1.89 h and 2.76 h and 3.44 h and 1.85 h.
Take `CC(C)n1c(/C=C/C(O)CC(O)CC(=O)O)c(-c2ccc(F)cc2)c2ccccc21` (centres unmarked) [fluvastatin calcium salt]: the aqueous solubility result in data set [5] is listed as “less than or equal to 0.275 mg/mL”.
Compound `CCC(C)C(=O)OC1CC(O)C=C2C=CC(C)C(CCC(O)CC(O)CC(=O)[O-])C21.CCC(C)C(=O)OC1CC(O)C=C2C=CC(C)C(CCC(O)CC(O)CC(=O)[O-])C21.[Mg+2]` (centres unmarked) [pravastatin magnesium salt (habit B), pravastatin magnesium salt] displayed an aqueous solubility in data set [1] of 16.12 mg/mL.
On the same count and under the same terms, the value for pravastatin magnesium salt was 17.24 mg/mL.
Consider `CC[C@H](C)C(=O)O[C@H]1C[C@H](O)C=C2C=C[C@H](C)[C@H](CC[C@@H](O)C[C@@H](O)CC(=O)O)[C@H]21.[Zn]` [pravastatin zinc salt], for which, in data set [6], the “degradation to the lactone (percent lactone)” value was “about 3%”; the “stability in suspension of omega-3 oil and an alcohol relative to other pravastatin salts” value is recorded as “higher stability”. Moreover, the “moisture sorption behaviour (DVS isotherm)” value in data set [2] (25 degrees C.) is “gradual increase in moisture sorption”.
